From patent US12012406B1, “Pyrido[4,3-e]pyrrolo[1,2-a]pyrimidine as CK2 inhibitors” (KING FAISAL UNIVERSITY, priority 2024, dated 2024)

Legend:
PC3 (prostate) = experiment: In vitro cytotoxic activity MTT assay, PC3; format: cell-based; details: Homo sapiens, Prostate cell, cells exposed for 96 hours, read-out: Cytotoxicity activity IC50 (50% inhibition of cell proliferation)
Method: (§1) Compounds 1-16 were screened for their in vitro cytotoxic activity utilizing a 3-(4,5-dimethyl-thiazol-2-yl)-2,5-diphenyltetrazolium bromide (MTT) assay against selected cancer human cell lines consisting of PC3 (prostate), HCT116 (colon), A375 (melanoma), H1299 (lung), MIAPaCa-2 (pancreas), HL60 (leukemia), MCF7 (breast), MDA-MB-231 (breast) (T. Mosmann, J. Immunol. Meth., 1983, 65, 55-63). The cells were cultured at 37° C. in RMPI1640 medium supplemented with 10% fetal bovine serum, 50 IU/mL penicillin, and 50 μg/mL streptomycin in a 5% CO2 incubator. All cells were sub-cultured 3 times/week by trypsinisation. Viable cells were seeded and allowed to adhere for 12 hours before a test drug was added in 96-well plates at an initial density of 1.0×10^5 cells/mL. Tumor cell lines were separately exposed to various concentrations of the tested compounds followed by incubation at a temperature of 37° C. during 96 hours inside a medium of fresh RMPI 1640. Cells were subsequently incubated at 37° C. using MTT at 0.5 mg/mL during 4 hours. After removal of supernatant, formazan crystals were dissolved in isopropanol and the optical density was measured at 570 nm. CX-4945 was used as a positive control.

H1299 (lung) = experiment: In vitro cytotoxic activity MTT assay, H1299; format: cell-based; details: Homo sapiens, NCI-H1299, cells exposed for 96 hours, read-out: Cytotoxicity activity IC50 (50% inhibition of cell proliferation)
Method: as §1

MCF7 (breast) = experiment: In vitro cytotoxic activity MTT assay, MCF7; format: cell-based; details: Homo sapiens, cells exposed for 96 hours, read-out: Cytotoxicity activity IC50 (50% inhibition of cell proliferation)
Method: as §1

HCT116 (colon) = experiment: In vitro cytotoxic activity MTT assay, HCT116; format: cell-based; details: Homo sapiens, HCT-116, cells exposed for 96 hours, read-out: Cytotoxicity activity IC50 (50% inhibition of cell proliferation)
Method: as §1

[1] = molecular target: T1, recombinant human CK2 (RRBB-holoenzyme) (Homo sapiens, UniProt P68400); experiment: CK2 Kinase Assay (33P-ATP, filter plate); format: biochemical; details: recombinant human CK2, final ATP concentration 15 μM, 10 min at 30° C.; read-out: protein kinase CK2 inhibition IC50
T1 construct: purchased Millipore
T1 sequence (P68400 whole entry): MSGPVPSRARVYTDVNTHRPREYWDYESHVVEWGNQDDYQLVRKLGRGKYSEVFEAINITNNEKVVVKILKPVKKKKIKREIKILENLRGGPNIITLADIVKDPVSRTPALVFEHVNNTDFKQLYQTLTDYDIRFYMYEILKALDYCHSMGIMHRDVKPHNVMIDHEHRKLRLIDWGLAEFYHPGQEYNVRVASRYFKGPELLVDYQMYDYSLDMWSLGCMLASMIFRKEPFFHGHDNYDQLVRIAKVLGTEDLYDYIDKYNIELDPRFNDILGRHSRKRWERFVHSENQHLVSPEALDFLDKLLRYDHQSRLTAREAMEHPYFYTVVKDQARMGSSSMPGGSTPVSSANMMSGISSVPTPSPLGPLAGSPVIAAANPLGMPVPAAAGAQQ
T1 sequence (P67870 whole entry partner): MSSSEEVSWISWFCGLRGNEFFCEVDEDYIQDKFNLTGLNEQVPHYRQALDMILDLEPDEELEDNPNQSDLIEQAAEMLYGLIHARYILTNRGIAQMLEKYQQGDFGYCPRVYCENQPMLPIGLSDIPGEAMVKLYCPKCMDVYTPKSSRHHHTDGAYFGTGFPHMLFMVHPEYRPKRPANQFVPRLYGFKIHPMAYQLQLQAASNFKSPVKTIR
Method: CK2 Kinase Assay was conducted using the protocol as described in Pierre F. et al; J. Med. Chem. 2011, 54, 635-654. The tested compounds in aqueous solution were added at a volume of 10 μL to a reaction mixture comprising 10 μL of assay dilution buffer (ADB; 20 mM MOPS, pH 7.2, 25 mM B-glycerol phosphate, 5 mM EGTA, 1 mM sodium orthovanadate, and 1 mM dithiothreitol), 10 μL of substrate peptide (RRRDDDSDDD, dissolved in ADB at a concentration of 1 mM), 10 μL of recombinant human CK2 (RRBB-holoenzyme, 25 ng dissolved in ADB; Millipore). Reactions were initiated by the addition of 10 μL of ATP solution (90% 75 mMMgCl2, 75 μM ATP (final ATP concentration: 15 μM) dissolved in ADB; 10% [γ-33P] ATP (stock 1mCi/100 μL; 3000 Ci/mmol (Perkin-Elmer) and maintained for 10 min at 30° C. The reactions were quenched with 100 μL of 0.75% phosphoric acid and then transferred to and filtered through a phosphor cellulose filter plate (Millipore). After washing each well five times with 0.75% phosphoric acid, the plate was dried under vacuum for 5 min and, following the addition of 15 μL of scintillation fluid to each well, the residual radioactivity was measured using a Wallac luminescence counter. The IC50 values were derived from eight concentrations of test inhibitors.

HL60 (leukemia) = experiment: In vitro cytotoxic activity MTT assay, HL60; format: cell-based; details: Homo sapiens, HL-60, cells exposed for 96 hours, read-out: Cytotoxicity activity IC50 (50% inhibition of cell proliferation)
Method: as §1

MDA-MB-231 (breast) = experiment: In vitro cytotoxic activity MTT assay, MDA-MB-231; format: cell-based; details: Homo sapiens, cells exposed for 96 hours, read-out: Cytotoxicity activity IC50 (50% inhibition of cell proliferation)
Method: as §1

MIAPaCa-2 (pancreas) = experiment: In vitro cytotoxic activity MTT assay, MIAPaCa-2; format: cell-based; details: Homo sapiens, MIA PaCa-2, cells exposed for 96 hours, read-out: Cytotoxicity activity IC50 (50% inhibition of cell proliferation)
Method: as §1

A375 (melanoma) = experiment: In vitro cytotoxic activity MTT assay, A375; format: cell-based; details: Homo sapiens, A-375, cells exposed for 96 hours, read-out: Cytotoxicity activity IC50 (50% inhibition of cell proliferation)
Method: as §1

SMILES: O=C(O)c1ccn2c1nc(Nc1cccc(Cl)c1)c1ccncc12 [Compound 1, 5-((3-chlorophenyl)amino)pyrido[4,3-e]pyrrolo[1,2-a]pyrimidine-7-carboxylic acid]
- IC50 (PC3 (prostate)): 2.4 µM
- IC50 (H1299 (lung)): 1.9 µM
- IC50 (MCF7 (breast)): 5.6 µM
- IC50 (HCT116 (colon)): 2.1 µM
- IC50 [1]: 0.089 µM
- IC50 (HL60 (leukemia)): 3.5 µM
- IC50 (MDA-MB-231 (breast)): 4.2 µM
- IC50 (MIAPaCa-2 (pancreas)): 1.3 µM
- IC50 (A375 (melanoma)): 4.6 µM
